Measured values reported in patent US12357604B2, “Topical formulations of cannabinoids and use thereof in the treatment of pain” (INMED PHARMACEUTICALS INC., priority 2017, dated 2025).
Entries after “also recorded” stand apart in the source; their conditions may differ.

Legend:
[1] = tested on: masseter muscle mechanoreceptors; assay: In vivo electrophysiology: mechanical threshold of mechanoreceptors; set-up: species or system Sprague-Dawley rats; details: for MT of masseter muscle mechanoreceptors on co-administration of THC with CB1 or CB2 antagonist: THC 1 mg/ml with AM251 or AM630 (1:0.5 and 1:1 mg/ml), intramuscular; for MT of masseter muscle mechanoreceptors: anesthetized rats, MT at 10, 30, 60, 120 min, 6 mechanoreceptors/group
Experimental: In vivo electrophysiology recordings of single ganglion neurons that innervate the craniofacial muscles were performed to investigate the mechanism of action of peripherally injected cannabinoids. Rats (n=6/group) from the behavioral experiments were used for subsequent in vivo electrophysiological experiments. Recordings were performed at least 7 days after the behavioral experiments and experiments were conducted on the PBS-injected masseter muscles (right side) of the rats to minimize potential residual effects of the previous cannabinoid treatments.
Rats were anesthetized with isoflurane (2-2.5% in oxygen 97-98%; AErrane; Baxter) and surgically prepared for electrophysiological recording. Heart rate, blood pressure and body temperature were monitored and a trachea tube was inserted for ventilation throughout the experiment. The hair of the face was shaved and the animal's head was positioned in a stereotaxic frame.
A parylene-coated tungsten microelectrode (0.10″, 2 MΩ, A-M Systems Inc.) was lowered into the trigeminal ganglion through the brain via a small trephination in the skull. An incision was made over the neck to expose the brain stem, and the dura was removed to allow access for a stimulating electrode to contact the caudal brain stem. Mechanoreceptors innervating craniofacial muscles (masseter and temporalis) were identified by mechanical probing using a fine-tipped cotton swab. Antidromic collisions were performed to confirm projection of the muscle fiber to the caudal brain stem (16, 30).
A stimulating electrode (parylene-coated tungsten microelectrode, 0.10″, 2 MΩ, A-M Systems Inc.) was lowered into the ipsilateral caudal brainstem and a constant-current electrical stimulus (100 μs biphasic pulse, 10-90 μA, 0.5 Hz) was applied to evoke antidromic action potentials. Orthodromic action potentials were evoked by mechanical stimulation of the tissue. […] The straight line distance between the stimulating and recording electrodes was divided by the latency of the antidromic action potential to estimate conduction velocity. MT was assessed with an electronic von Frey hair (IITC Life Science) by applying mechanical stimuli at 1 min intervals for 10 min to obtain baseline threshold. After baseline measurement, treatment was administered and MT was reassessed at 10, 30, 60, and 120 minutes thereafter. At the end of the experiments, animals were euthanized with pentobarbital (Nembutal 100 mg/kg, Abbott Laboratories, Chicago, IL).
(§1) For the immunohistochemistry experiment, the frequency of expression of CB1, CB2 and TRPV1, respectively, in trigeminal ganglion neurons between NGF and vehicle-injected sides was analyzed with a paired Student's t-test. For the behavioral and electrophysiological experiments, MT from NGF and vehicle-injected sides was analyzed with a two-way repeated measures analysis of variance (ANOVA) with time and treatment as factors. Relative mechanical activation threshold (Rel MT) was calculated as 100×Post-treatment MT/Baseline MT. Post hoc Holm Sidak's multiple comparison tests were used to compare post injection mechanical thresholds between treatment groups at each time point. One-way repeated measures ANOVA on ranks was used to analyze test scores in the inverted screen tests. A probability level of 0.05 was considered significant for all tests. Error bars represented standard error of the mean.

[2] = tested on: NGF-induced sensitization in female rat masseter muscle; assay: Behavioral mechanical threshold (electronic von Frey) of NGF-sensitized masseter muscle; format: in vivo, Sprague-Dawley rats; details: for Effect on NGF-induced mechanical sensitization (masseter muscle mechanical threshold, MT): intramuscular injection 10 μl, into NGF-injected masseter 3 days after NGF, MT at 10, 30, 60, 120 min, n=6/group; for MT of contralateral masseter muscles: after intramuscular cannabinoid injection into the NGF-injected side (THC 1 mg/ml, CBD 5 mg/ml, CBN 1 mg/ml)
Source text: Female (259-350 g, n=55) Sprague-Dawley rats were used for all experiments. Animals were housed in groups of two with a 12-h light/dark cycle. Food and water were given ad libitum. All animal procedures were reviewed and approved by the University of British Columbia Animal Care Committee.
Appropriate volumes of each solution were evaporated under nitrogen gas, and subsequently re-solubilized with 4% Tween 80 in isotonic saline to final concentrations used for injection.
Three days before behavioral experiments, rats received an injection of NGF (25 μg/ml, 10 μl, Sigma, St. Louis, MO) or vehicle (phosphate buffered saline, PBS, 10 μl) into the left and right masseter muscles, respectively, under brief isoflurane anesthesia. […] This is accompanied by an increase in NMDA receptor expression in peripheral trigeminal ganglion neurons with a peak at three days after injection (15). […] The masseter muscle region was shaved prior to injection and the injection sites were marked with a permanent marker for subsequent identification. The concentration of NGF was selected based on the concentration used in previous human experimental pain studies and experiments in rats (15, 24, 25, 26, 27). The investigator was blinded to the identity of the treatment groups until after all data was collected.
MT was assessed with a rigid electronic von Frey hair (IITC Life Science, Woodland Hills, CA). Before NGF injection, rats were habituated to restraint in a towel. […] The mechanical test stimulus was applied at 1 min intervals for 5 min and the average was calculated for further analysis. MT was measured daily for 5 days prior to the start of the experiment to determine that measurements were stable. MT readings recorded prior to NGF injection were used as naïve baseline. […] On the test day, a post-NGF injection baseline (NGF baseline) was recorded before injection of cannabinoid treatment groups. After treatment injections, MT was measured at 10, 30, 60, and 120 min after injection.
as §1

[3] = tested on: impaired motor function in rats; assay: Inverted screen test; format: in vivo, Sprague-Dawley rats; details: after intramuscular injection; for Impairment of motor functions in the inverted screen tests: tested at 10, 30, 60 and 120 min, n=4/group; for Inverted screen test median score: score 0 climbed to top, 1 held on upside down, 2 fell
Experimental: A modified version of the inverted screen test was performed to evaluate impaired motor function in rats (28, 29). Rats (n=4/group) were placed on a screen (185 mm×290 mm) with 5 mm diameter holes and the screen was slowly inverted 180 degrees until the rats were suspended upside down on the bottom of the screen. […] The rats were trained how to perform the test daily for three days before they were tested.
as §1

[4] = tested on: mental nerve ligation model; assay: Topical THC in mental nerve ligation model; format: in vivo, mice; details: topical THC 1% in a PLO-gel cream base
Experimental: FIG. 14 illustrates the effect of topical THC (1%) in a mental nerve ligation model. Neuropathic pain behavior was measured by observing total facial grooming in naïve and post-surgical mice after application of vehicle or THC.
FIG. 15 illustrates the effect of topical THC (1%) in a mental nerve ligation model. Neuropathic pain behavior was measured by observing mechanical threshold response in naïve and post-surgical mice after application of vehicle or THC.

CB1 = assay: Immunohistochemistry of masseter ganglion neurons after NGF injection: CB1; format: in vivo, Sprague-Dawley rats; details: 3 days after NGF 25 μg/ml, 10 μl; saline side 52±3%; n=5 rats
Experimental: (§2) To identify trigeminal ganglion neurons that innervate the masseter muscle, the fluorescent tracer dye Fast Blue (2%, Polysciences, Warrington, PA) was injected bilaterally into the masseter muscles of rats (n=5),7 days prior to euthanization. NGF (25 μg/ml, 10 μI, Sigma, St. Louis, MO) or vehicle (phosphate buffered saline, PBS, 10 μI) was injected into the left and right masseter muscles, respectively, three days before euthanization. Under deep isoflurane anesthesia, animals were perfused with 120 ml cold saline followed by 120 ml of paraformaldehyde (4%). Trigeminal ganglia and masseter muscles were removed, incubated in 20% and then 40% sucrose for 48h each to cryoprotect the tissue, and cut into 10 μm sections with a cryotome. […] Fast Blue positive cells were counted and photographed for estimation of cell diameter. […]
(§3) For the immunohistochemistry experiment, the frequency of expression of CB1, CB2 and TRPV1, respectively, in trigeminal ganglion neurons between NGF and vehicle-injected sides was analyzed with a paired Student's t-test. For the behavioral and electrophysiological experiments, MT from NGF and vehicle-injected sides was analyzed with a two-way repeated measures analysis of variance (ANOVA) with time and treatment as factors. Relative mechanical activation threshold (Rel MT) was calculated as 100×Post-treatment MT/Baseline MT. […]

CB2 = assay: Immunohistochemistry of masseter ganglion neurons after NGF injection: CB2; format: in vivo, Sprague-Dawley rats; details: 3 days after NGF 25 μg/ml, 10 μl; saline side 47±5%; n=5 rats
Experimental: as §2, §3

TRPV1 = assay: Immunohistochemistry of masseter ganglion neurons after NGF injection: TRPV1; format: in vivo, Sprague-Dawley rats; details: 3 days after NGF 25 μg/ml, 10 μl; n=5 rats
Experimental: as §2, §3

[5] = intramuscular injection 1 mg/ml

`Cc1c(C(=O)NN2CCCCC2)nn(-c2ccc(Cl)cc2Cl)c1-c1ccc(I)cc1` [AM251, 1-(2,4-dichlorophenyl)-5-(4-iodophenyl)-4-methyl-N-1-piperidinyl-1H-pyrazole-3-carboxamide] was tested, and the “MT of masseter muscle mechanoreceptors on co-administration of THC with CB1 or CB2 antagonist” value [1] was “attenuated the increase in MT mediated by THC alone”.

In the case of `COc1ccc(C(=O)c2c(C)n(CCN3CCOCC3)c3cc(I)ccc23)cc1` [AM630, [6-iodo-2-methyl-1-[2-(4-morpholinyl)ethyl]-1H-indol-3-yl](4-methoxyphenyl)-methanone], the “MT of masseter muscle mechanoreceptors on co-administration of THC with CB1 or CB2 antagonist” value [1] is reported as “not different from THC alone”.

With `CCCCCc1cc(O)c2c(c1)OC(C)(CCC=C(C)C)C=C2` (centres unmarked) [CBC, Cannabichromene] the “Effect on NGF-induced mechanical sensitization (masseter muscle mechanical threshold, MT)” value ([2]; 1 mg/ml) was “No effect on MT”, the “Impairment of motor functions in the inverted screen tests” value (shortened to “Impairment of motor functions”) [3] was “No impairment of motor functions” and the “Inverted screen test median score” value [3] was 0.

In the case of `C=C(C)C1CCC(C)=CC1c1c(O)cc(CCCCC)cc1O` (centres unmarked) [CBD, 2-(6-isopropenyl-3-methyl-2-cyclohexen-1-yl)-5-pentyl-1,3-benzenediol], the “MT of contralateral masseter muscles” value [2] is reported as “No change in mechanical threshold”, the “Effect on NGF-induced mechanical sensitization (masseter muscle mechanical threshold, MT)” value ([2]; 1 mg/ml) is reported as “had no effect on NGF-induced mechanical sensitization” and the “Effect on NGF-induced mechanical sensitization (masseter muscle mechanical threshold, MT)” value ([2]; 5 mg/ml) is reported as “significantly reversed NGF-induced sensitization at 10 and 30 min after injection; also recorded: Significant differences”. The “Impairment of motor functions” value [3] was “No impairment of motor functions”, the “Inverted screen test median score” value [3] was 0 and the “MT of masseter muscle mechanoreceptors” value [1, 5] was “not 1 mg/ml, significantly increased MT”. For the same molecule, the “MT of masseter muscle mechanoreceptors” value ([1]; intramuscular injection 5 mg/ml) was “significantly increased MT, 30 min after injection; also recorded: Significant differences”.

For `CCCCCc1cc(O)c2c(c1)OC(C)(C)c1ccc(C)cc1-2` [CBN, 6,6,9-trimethyl-3-pentylbenzo[c]chromen-1-ol], the “MT of contralateral masseter muscles” value [2] was “No change in mechanical threshold”, the “Effect on NGF-induced mechanical sensitization (masseter muscle mechanical threshold, MT)” value ([2]; 1 mg/ml) was “significant increase in MT at 10 min after injection compared to NGF baseline; also recorded: Significant differences” and the “Impairment of motor functions” value [3] was “No impairment of motor functions”. The “Inverted screen test median score” value [3] was 0, the “Area under the curve (AUC) analysis of the electrophysiological data” value ([1]; AUC of MT data of FIGS. 9-12, compared to the other indicated treatments) was “reduction in pain response” and the “MT of masseter muscle mechanoreceptors” value [1, 5] was “significantly increased MT at 30 and 60 min after injection; also recorded: Significant differences”.

In the case of `CCCCCc1cc(O)c2c(c1)OC(C)(C)[C@@H]1CCC(C)=C[C@@H]21` [THC, delta-9-tetrahydrocannabinol], the “MT of contralateral masseter muscles” value [2] is reported as “No change in mechanical threshold”, the “Effect on NGF-induced mechanical sensitization (masseter muscle mechanical threshold, MT)” value ([2]; 1 mg/ml) is reported as “significantly reversed NGF-induced sensitization at 10 and 30 min after injection; also recorded: Significant differences” and the “Impairment of motor functions” value [3] is reported as “No impairment of motor functions”. The “Inverted screen test median score” value [3] was 0, the “MT of masseter muscle mechanoreceptors” value [1, 5] was “significantly increased the MT of mechanoreceptors at 10, 30 and 60 min after injection; also recorded: Significant differences” and the “Mechanical allodynia in the lower lip skin (mechanical threshold response)” value [4] was “reversed mechanical allodynia”. The “Neuropathic pain behavior (facial grooming)” value [4] was “reduced neuropathic pain behavior”.

B1: NGF: nerve growth factor (Sigma) injected into masseter muscle to induce mechanical sensitization (protein, UniProt P01139 122-241, looked up)
Beta-nerve growth factor: SSTHPVFHMGEFSVCDSVSVWVGDKTTATDIKGKEVTVLAEVNINNSVFRQYFFETKCRASNPVESGCRGIDSKHWNSYCTTTHTFVKALTTDEKQAAWRFIRIDTACVCVLSRKATRRG
In the case of B1, the “Decrease of masseter muscle MT” value ([2]; 3 days after intramuscular injection of NGF 25 μg/ml, 10 μl) is reported as 31%, the “Frequency of expression of CB1 in masseter ganglion neurons, NGF-injected side” value (CB1) is reported as 39±3% and the “Frequency of expression of CB2 in masseter ganglion neurons, NGF-injected side” value (CB2) is reported as 33±6%. The “Effect on TRPV1 expression in masseter ganglion neurons” value (TRPV1) was “No significant effect”.
